Source: patent US12661396B2, “Selective targeting of the TREML1/MD2 interaction by small peptide or protein and its use for vaccine adjuvants” (Ascendo Biotechnology, Inc., priority 2020, dated 2026)

How the values were obtained:
[1] = tested on: BMDCs; assay: Mouse bone marrow derived dendritic cell maturation (flow cytometry); assay type: cell-based; details: FIG. 8
Method: Femurs and tibiae were harvested from female C57BL/6 mice and extra muscle tissues were removed. Bones were disinfected in 70% ethanol, then rinsed with RPMI-1640 medium, and both ends were cut to flush out the bone marrow with RPMI-1640 medium using 26 G needle syringes. To disperse cell clumps, bone marrow suspension was pipetted in-and-out several times and washed twice with RPMI-1640 medium by centrifugation. […] At day 0, after cell counting, the leukocytes were seeded at a concentration of 2×10^6 cells/10 ml R10 medium containing 200 U/ml rmGM-CSF in sterile […] Petri dish and incubated at 37° C. with 5% CO2. At day 3, another 10 ml of R10 medium containing 200 U/ml rmGM-CSF was added. At days 6, one half of the supernatant was taken out and centrifuged to collect cell pellet, which was resuspend in original plate with 10 ml of R10 medium containing 200 U/ml GM-CSF. At day 8, non-adherent cells were collected by gentle pipetting and centrifuged at 300 g for 5 min. To obtain purer dendritic cells, the population of macrophages (F4/80^high) was removed with Anti-F4/80 MicroBeads UltraPure (130-110-443, Miltenyi Biotec, Bergisch Gladbach, Germany) following the manufacturer's instructions. Briefly, cell pellet was resuspended and mixed well in MACS buffer with Anti-F4/80 MicroBeads UltraPure. This mixture was incubated for 15 min in the dark in 4° C. After washing cells with MACS buffer, cells were resuspended in MACS buffer, filtered with 30 μm nylon mesh, and added to the MACS buffer rinsed column to separate F4/80^+ cells. Unlabeled cells were collected and washed with R10 medium. To freeze the cells, cell pellet was counted and resuspended at a concentration 1×10^7 cell in 2 ml CELLBANKER2 (#11891, ZENOAQ) per cryopreservation vial and stored at −80 degree Celsius.
BMDCs were thawed for the DC maturation experiments. These cells were seeded at 1×10^6 cells/2 ml in R10 medium containing 200 U/ml rmGM-CSF in wells of a 6-well tissue culture dish and cultured to recover the cell viability at 37° C. with 5% CO2. After 6 hr, BMDCs were treated with various fragments of mTREML1 protein and cultured in 37° C. with 5% CO2. On the next day, resuspended cells were collected and analyzed by flow cytometry.
Cells were centrifuged at 1800 rpm for 3 min in PBS containing 1% FBS and 0.1% sodium azide (PBSBA), and then divided at a concentration of 1×10^5 cells/100 ul PBSBA in flow tube. Before staining the surface marker of DC, cells were treated with mouse Fc blocker to avoid antibody non-specific binding at room temperature for 30 min. […] After PBSBA washing, samples were analyzed using the CytoFlex flow cytometer with the CytExpert software.

[2] = target: T1, mMD2 (Mus musculus, UniProt Q9JHF9); assay: Solid phase binding assay, mMD2 to immobilized mTREML1 stalk; details: stalk coated 5 ug/ml; FIG. 3B
T1 sequence (Q9JHF9 19-160): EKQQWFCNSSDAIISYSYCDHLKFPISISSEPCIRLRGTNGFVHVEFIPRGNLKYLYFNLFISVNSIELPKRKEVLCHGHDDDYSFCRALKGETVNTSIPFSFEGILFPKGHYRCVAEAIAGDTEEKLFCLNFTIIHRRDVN
Method: For TREML1 or mTREML1 stalk binding to human or mouse MD2 protein, TREML1 stalk or mTREML1 stalk (5 ug/ml in PBS) was coated separately on a 96-well plate. Recombinant hTLR4, hMD2, hCD14, or mMD2 was each serially diluted and added to the plates. Anti-His tag antibody-HRP was used as a detection antibody to detect the protein binding.

[3] = tested on: CT26 colon cancer cells; assay: CT26 colon carcinoma model, tumor vaccine with adjuvant; assay type: in vivo, BALB/c mice; details: combined with tumor antigen 5E-GP70-15/aluminum mixture, s.c. on days 6 and 13; FIG. 9B
Method: To test TREML1 ECD or its stalk as a vaccine adjuvant or immune booster, we use a CT26 colon carcinoma animal model. […] Briefly, CT26 colon cancer cells (3×10^5 cells) were injected subcutaneously into BALB/c mice on day 0. When the tumor grows to 30-100 mm^3 on day 6, tumor vaccines (tumor antigen 5E-GP70-15/aluminum mixture with or without mouse TREML1 stalk; 100 μL/mouse each time) were injected subcutaneously. The vaccinations were repeated on days 13. Tumor volumes were measured every 3-4 days. […] A DNA vaccine containing the gp70 gene has been used to induce protective immunity against CT26 cells. (J. Takeda et al., “Anti-tumor immunity against CT26 colon tumor in mice immunized with plasmid DNA encoding beta-galactosidase fused to an envelope protein of endogenous retrovirus,” Cell Immunol., (2000), 204(1): 11-18).
For the establishment of syngeneic murine colon cancer models, BALB/c mice were subcutaneously injected in the back with 3×10^5 CT26 cells per mouse. When the volume of the inoculated tumor reached 30-100 mm^3, mice were randomly divided into cohorts for different treatments. […] During each animal study, tumor dimensions were monitored with caliper measurements, and the tumor volumes were calculated using the equation: […], wherein length is the longest diameter of the tumor and the width is the shortest diameter. […]

mTREML1 stalk: mouse TREML1 stalk polypeptide, SEQ ID NO:4, EGEEAEDEKETYRIGTGSLLEDPSLDPSASAGPHEFRRRENSIP, chemically synthesized (listed as Mus musculus)
dendritic cell maturation effect compared with TNF-α [1]: significantly stronger than those of TNF-α
dendritic cell maturation (DC maturation markers CD40, CD86, CD80, MHC II) ([1]; analyzed the next day): can trigger dendritic cell maturation
mouse MD2 binding to immobilized mTREML1 stalk [2]: can bind to the immobilized TREML1 stalk and mTREML1 stalk
tumor volume, vaccine with mTREML1 stalk as adjuvant [3]: dramatic reduction in the tumor volumes
